Assay results: patent publication USRE48636E1, “Decoy peptides inhibiting protein phosphatase 1-mediated dephosphorylation of phospholamban” (BethphaGen Inc., priority 2012, dated 2021)
“Also recorded” adds a separate entry of the source. No end group written: not given here.

Tests used:
adult cardiomyocytes [1] = assay: Cell contractility of isolated adult cardiomyocytes (video-based edge detection); set-up: species or system rat; details: for Effect on PMA-induced reduction in contractility (peak shortening, rates of contraction and relaxation): 1 μM peptide 45 min, then 1 μM PMA 15 min
Procedure: (§1) FIGS. 2a-2d represent the increase in cardiac contractility by the decoy peptides. Isolated adult cardiomyocytes were treated with 1 μM of indicated peptides for 45 min, and then with 1 μM of PMA for 15 min. Contractile parameters were then determined. FIGS. 2a and 2b show contractile parameters. Peak cell shortening, percentage of shortened cell length; −dL/dt, maximal rate of cell shortening; +dL/dt, maximal rate of cell relengthening. FIGS. 2c and 2d show average parameters of the transient Ca^2+ properties determined with Fura2/AM. Baseline [Ca^2+]i, baseline intracellular Ca^2+ levels; Δ[Ca^2+]i (340/380), increase in intracellular Ca^2+ levels in response to electric Stimuli; τ(ms), Ca^2+ transient decay rate. Approximately 500 cells were chosen for the contractility and Ca^2+ transient measurements were taken from eight individual hearts. #, P<0.05; *, P<0.01 compared to control; error bars represent SD.
(§2) Ventricular myocytes were isolated from SD rat hearts as previously described with minor modifications. Male rats of 8-12 weeks of age (250-320 g) were used. In brief, rats were anesthetized by the inhalation of isofluran (0.5%) for 5 min. The heart was quickly removed from the chest and the aorta was retrogradely perfused at 37° C. for 3 min with calcium-free Tyrode buffer (137 mM NaCl, 5.4 mM KCl, 1 mM MgCl2, 10 mM glucose, 10 mM HEPES [pH 7.4], 10 mM 2, 3-butanedione monoxime, and 5 mM taurine) gassed with 100% O2. The enzymatic digestion was then initiated by adding collagenase type B (0.35 U/ml; Roche) and hyaluronidase (0.1 mg/ml; Worthington) to the perfusion solution. When the heart became swollen after 10 min of digestion, the left ventricle was quickly removed, cut into several chunks, and further digested in a shaker (60-70 rpm) for 10 min at 37° C. in the same enzyme solution. The supernatant containing the dispersed myocytes was then filtered through a cell strainer (100 μm in pore size, BD Falcon) and gently centrifuged at 500 rpm for 1 min. Extracellular Ca^2+ was incrementally added back to a concentration of 1.25 mM over a span of 30 min to avoid the Ca^2+ paradox. This procedure usually yielded ≥80% viable rod-shaped ventricular myocytes with clear sarcomere striations. Myocytes with obvious sarcolemmal blebs or spontaneous contractions were discarded.
(§3) The mechanical properties of ventricular myocytes were assessed using a video-based edge detection system (IonOptix), as previously described. In brief, laminin-coated coverslips with attached cells were placed in a chamber mounted on the stage of an inverted microscope (Nikon Eclipse TE-100F) and perfused (about 1 ml/min at 37° C.) with Tyrode buffer (137 mM NaCl, 5.4 mM KCl, 1 mM CaCl2, 1 mM MgCl2, 10 mM glucose, and 10 mM HEPES [pH 7.4]). The cells were field-stimulated at a frequency of 3 Hz (30 V) using a STIM-AT stimulator/thermostat placed on a HLD-CS culture chamber/stim holder (Cell Micro Controls). […] Changes in cell length during shortening and relengthening were captured and analyzed using soft edge software (IonOptix). The cardiomyocytes were loaded with 0.5 μM Fura2-AM (Molecular Probes), a Ca^2+-sensitive indicator, for 15 min at 37° C. Fluorescence emissions were recorded simultaneously with the contractility measurements using Myocyte calcium and contractility recording system (IonOptix). Cardiomyocytes were exposed to light emitted by a 75 W halogen lamp through either a 340 or 380 nm filter while being field-stimulated as described above. Fluorescence emissions were detected between 480 and 520 nm by a photomultiplier tube after initial illumination at 340 nm for 0.5 ms and then at 380 nm for the duration of the recording protocol. The 340 nm excitation scan was then repeated at the end of the protocol, and qualitative changes in the intracellular Ca^2+ concentration were inferred from the ratio of the Fura fluorescence intensity at both wavelengths.

adult cardiomyocytes [2] = assay: Intracellular Ca2+ transient measurement (Fura2-AM) in isolated adult cardiomyocytes; assay type: cell-based, rat; details: for Effect on PMA-induced defects in intracellular Ca2+ handling (Ca2+ transient amplitude, time constant of decay): 1 μM peptide 45 min, then 1 μM PMA 15 min, Fura2/AM
Procedure: as §1, §2, §3

[3] = system: PP1-mediated dephosphorylation of PLB; assay: PLB phosphorylation (Western blot) in PMA-treated isolated adult cardiomyocytes; assay type: cell-based, rat; details: 1 μM peptide 45 min, then 1 μM PMA 15 min; for Blocking of PMA-induced dephosphorylation of PLB at Ser16 and Thr17 (elevating the phosphorylation levels of PLB): Western blot
Procedure: FIGS. 1c-1d represent the increase in PLB phosphorylation by the decoy peptides (FIG. 1c) and shortened decoy peptides (FIG. 1d). Isolated adult cardiomyocytes were treated with 1 μM of indicated peptides for 45 min, and then with 1 μM of PMA for 15 min. Western blots of cell lysates were then probed with antibodies against phospho-PLB (S^16), phospho-PLB (T^17), total PLB, or GAPDH. The decoy peptides contain the following sequences: ψPLB-SE, RAETIEMPQ (SEQ ID NO:1); ψPLB-SD, RADTIEMPQ (SEQ ID NO:3); ψPLB-TE, RASEIEMPQ (SEQ ID NO:2). The shortened decoy peptides contain the following sequences: ψPLB-8-mer, AETIEMPQ (SEQ ID NO:4); ψPLB-7-mer, RAETIEM (SEQ ID NO:5); ψPLB-6-mer, RAETIE (SEQ ID NO:6); ψPLB-5-mer: RAETI (SEQ ID NO:7). PMA, phorbol 12-myristate 13-acetate.
The decoy peptides were derived from the PLB protein sequence (SEQ ID NO:10) surrounding the phosphorylation sites Ser^16 and Thr^17: RAS^16T^17IEMPQ. The peptides were conjugated via a cystein-cystein bond at their N termini to the cell penetrating peptide TAT (YGRKKRRQRRR (SEQ ID NO:11)) to facilitate uptake into cells. The peptides used in this invention were as follows: ψPLB-wt, RASTIEMPQ (SEQ ID NO:8); ψPLB-SE, RAETIEMPQ (SEQ ID NO:1); ψPLB-TE, RASEIEMPQ (SEQ ID NO:2); ψPLB-SD, RADTIEMPQ (SEQ ID NO:3). In addition, shortened ψPLB-SE peptides were also tested: 8-mer, AETIEMPQ (SEQ ID NO:4); 7-mer, RAETIEM (SEQ ID NO:5); 6-mer, RAETIE (SEQ ID NO:6); 5-mer, RAETI (SEQ ID NO:7). All of the peptides were synthesized and modified by AnyGen (Gwangju, Korea) and dissolved in distilled water to a stock concentration of 1 mM. Peptides were >95% pure. The decoy peptides were treated for 1 h at a final concentration of 1 μM.
as §2
(§4) Heart lysates (50 μg) in SDS sample buffer were run on a SDS-PAGE gel and then transferred to a PVDF membrane (Bio-Rad). The membrane was blocked with a 5% skim milk solution and then incubated overnight with antibodies directed against PLB (Affinity Bioreagents), phospho-PLB (Ser^16, Cell Signaling), phospho-PLB (Thr^17, Badrilla), SERCA2a (Santa Cruz), Caspase 3 (Cell Signaling), or GAPDH (Santa Cruz). The membranes were then incubated with a secondary antibody conjugated to horseradish peroxidase (Jackson Immuno Research) and developed using the Western Lighting chemiluminescence reagent (Perkin Elmer).

Caspase 3 = assay: Western blot of heart lysates after ischemia/reperfusion: Caspase 3; set-up: species or system rat; details: heart lysates at the end of reperfusion with 1 μM peptide
Procedure: (§5) FIGS. 3a-3b represent the postischemic cardiac performance ex vivo. […] The changes in left ventricular developed pressure (LVDP) are shown. n=4. *, P<0.01 compared to TAT; error bars represent SEM. […] Western blots probed with antibodies against phospho-PLB (S^16), phosphor-PLB (T^17), total PLB, Caspase 3, or GAPDH are shown.
as §4
(§6) Rats were anesthetized by inhalation of isofluran (0.5%) for 5 min. […] Heart rate, left ventricular developed pressure (LVDP), and the first derivatives of LV pressure (LV +dP/dt max and LV −dP/dt max) were all recorded using PowerLab Chart Systems (AD Instruments). The balloon volume was adjusted in 250-300 μl to result in a measured end diastolic pressure in the range of 6-10 mmHg. […]

PLB = assay: Western blot of heart lysates after ischemia/reperfusion: phospho-PLB; set-up: species or system rat; details: heart lysates at the end of reperfusion with 1 μM peptide
Procedure: as §5, §4, §6

rat hearts = assay: Langendorff isolated perfused heart, ischemia/reperfusion ex vivo, left ventricular developed pressure; details: 20 min no-flow ischemia, 30 min reperfusion with 1 μM peptide
Procedure: as §5
Rats were anesthetized by inhalation of isofluran (0.5%) for 5 min. The heart was quickly removed and placed in cold oxygenated Tyrode solution (137 mM NaCl, 5.4 mM KCl, 1 mM MgCl2, 10 mM glucose, 1 mM CaCl2, 10 mM HEPES [pH 7.4], 100% O2). The aorta was cannulated and perfused by the Langendorff method with oxygenated Tyrode solution at constant pressure (65 mmHg, temperature 37±0.2° C.). A latex water-filled balloon was inserted into the left ventricular chamber and connected to a pressure transducer (AD Instruments) for continuous measurement of heart performance. Heart rate, left ventricular developed pressure (LVDP), and the first derivatives of LV pressure (LV +dP/dt max and LV −dP/dt max) were all recorded using PowerLab Chart Systems (AD Instruments). The balloon volume was adjusted in 250-300 μl to result in a measured end diastolic pressure in the range of 6-10 mmHg. After a 30 min stabilization period, the hearts were subjected to 20 min of no-flow to induce global ischemia, followed by 30 min of reperfusion. […]

[4] = 1 μM PMA 15 min, no decoy peptide

Molecule | Blocking of PMA-induced dephosphorylation of PLB at Ser16 and Thr17 (elevating the phosphorylation levels of PLB) [3] | Effect on PMA-induced reduction in contractility (peak shortening, rates of contraction and relaxation) (adult cardiomyocytes [1]) | Effect on PMA-induced defects in intracellular Ca2+ handling (Ca2+ transient amplitude, time constant of decay) (adult cardiomyocytes [2]) | also measured
CCCCCCCCCCCCCC(=O)O[C@@H]1[C@@H](C)[C@@]2(O)[C@@H](C=C(CO)C[C@]3(O)C(=O)C(C)=C[C@@H]23)[C@@H]2C(C)(C)[C@]12OC(C)=O [PMA, phorbol 12-myristate 13-acetate, reference compound] | – | – | – | Contractility (peak shortening, rates of contraction and relaxation) (adult cardiomyocytes [1]; [4]): significantly reduced; Ca2+ transient amplitude (adult cardiomyocytes [2]; [4]): significant reduction; Time constant of the Ca2+ transient decay (adult cardiomyocytes [2]; [4]): significant increase
AETIEMPQ (not fully specified (N-terminus); also: TAT coupled) [ψPLB-8-mer] | only ψPLB-5-mer was ineffective | – | – | –
RADTIEMPQ (not fully specified (N-terminus); also: TAT coupled) [ψPLB-SD] | as effective as ψPLB-SE | as effective as ψPLB-SE | as effective as ψPLB-SE | –
RAETI [ψPLB-5-mer] | ineffective | – | – | –
RAETIE [ψPLB-6-mer] | only ψPLB-5-mer was ineffective | as effective as ψPLB-SE | as effective as ψPLB-SE | –
RAETIEM [ψPLB-7-mer] | only ψPLB-5-mer was ineffective | – | – | –
RAETIEMPQ (not fully specified (N-terminus); also: TAT coupled) [ψPLB-SE] | significantly blocked; also recorded: prevented dephosphorylation | completely prevented | completely reversed | I/R-induced activation of cell death-related Caspase 3 (Caspase 3): completely reversed; Phosphorylation of PLB at Ser16 after ischemia/reperfusion (PLB): significantly recovered; Left ventricular developed pressure after ischemia/reperfusion (rat hearts; I/R alone 37-44 mmHg, pre-ischemia 80-100 mmHg): 73-78 mmHg; Phosphorylation levels of PLB after treatment compared with basal levels [3]: slightly but significantly higher than the basal levels
RASEIEMPQ (not fully specified (N-terminus); also: TAT coupled) [ψPLB-TE] | blocked dephosphorylation but was less effective than ψPLB-SE; also recorded: not as effective as ψPLB-SE | no or only marginal effects | negligible or marginal | –
RASTIEMPQ (not fully specified (N-terminus); also: TAT coupled via disulfide) [ψPLB-wt] | – | no or only marginal effects | negligible or marginal | –
YGRKKRRQRRR (Human immunodeficiency virus) [TAT, reference compound] | – | – | – | Effect on left ventricular developed pressure after ischemia/reperfusion (rat hearts): no effects
